Experimental data published in patent US7166706B2 (priority 2001, dated 2007).
Read-outs that look alike come from different tables or passages of the source.

Legend:
Pythium ultimum = format: cell-based
yeast reductoisomerase [1] = biological target: T1, yeast reductoisomerase (Saccharomyces cerevisiae, UniProt P06168); assay: Kinetics of inhibition of the yeast reductoisomerase (NADPH absorbance at 340 nm); format: biochemical; settings: for mechanism of inhibition with respect to the AHB substrate: 1/m3 linear in AHB concentration, enzyme 110 nM; for k0, inhibitor/enzyme association constant: yeast reductoisomerase 110 nM, 25° C., pH 7.5, AHB varied
Description: (§1) FIGS. 7A and 7B: Kinetics of inhibition of the yeast reductoisomerase in the presence of the inhibitors dimethylphosphinoyl-2-hydroxyacetate [A] and N-hydroxy-N-isopropyloxamate [B]. The enzyme activity measurements are carried out at 25° C. in 1 ml of the following reaction medium: 10 mM MgCl2, 250 μM NADPH, 0.48 mM AHB in 50 mM sodium Hepes buffer, pH 7.5, and in the presence of enzyme 110 nM.
The reactions are initiated by simultaneously adding varying amounts of inhibitors dimethylphosphinoyl-2-hydroxyacetate [A] and N-hydroxy-N-isopropyloxamate [B] (from 2 μM to 30 μM) to the reaction medium. The curves are plotted according to the equation (1), which makes it possible to determine the values for Kobs, the apparent rate of formation of the enzyme-inhibitor complex.
as §1, with “FIGS. 8A and 8B:” for “FIGS. 7A and 7B:”, “8A and 8B: Kinetics of” for “7A and 7B: Kinetics of”, “of enzyme at 110 nM.” for “of enzyme 110 nM.”
The reactions are initiated by simultaneously adding varying amounts of inhibitors [A] and [B] (from 2 μM to 50 μM) to the reaction medium.
FIGS. 9A and 9B: Determination of the association constant k0 for the dimethylphosphinoyl-2-hydroxyacetate [A] and for the N-hydroxy-N-isopropyloxamate [B] on the yeast reductoisomerase using the representation 1/Kobs as a function of the concentration of substrate AHB. The enzyme activity measurements are carried out at 25° C. in 1 ml of the following reaction medium: 10 mM MgCl2, 250 μM NADPH, from 125 μM to 2.375 mM AHB, and in 50 mM sodium Hepes buffer, pH 7.5, and in the presence of enzyme at 110 nM. The reactions are initiated by simultaneously adding varying amounts of substrate AHB (from 125 μM to 2.375 mM) and the inhibitors [A] (10 μM) and [B] (15 μM) to the reaction medium.
The curves are plotted according to the equation (3), which makes it possible to determine the values for k0, the rate of association of the inhibitor with the enzyme.
The effect of the inhibitors N-hydroxy-N-isopropyloxamate and dimethylphosphinoyl-2-hydroxyacetate on the yeast reductoisomerase was followed over time by measuring the decrease in absorbence of NADPH at 340 nm, in a spectrophotometer. […]
Equation (1): OD340=m1+(m2−m1).e^(−m3.t) where the parameters are as follows: • OD340 is the optical density measured on a spectrophotometer at 340 nm at time “t” • m1 the optical density when “t” tends toward infinity • m2 the initial optical density • m3 the product of the concentration of inhibitor multiplied by the apparent disappearance constant for NADPH. […]

Ustilago nuda = format: cell-based
M. grisea spores = format: cell-based, Magnaporthe grisea
[2] = tested on: all the sensitive fungal species; format: cell-based
yeast reductoisomerase [3] = biological target: T1, yeast reductoisomerase; assay: Stoichiometry of binding of the inhibitors to the yeast reductoisomerase; format: biochemical; settings: for stoichiometry of binding of the inhibitor to the yeast reductoisomerase: 0.1 nmol inhibitor completely inhibits 0.1 nmol enzyme; for type of inhibition (reversibility): yeast reductoisomerase
Description: FIGS. 6A and 6B: Stoichiometry for binding of the inhibitors dimethylphosphinoyl-2-hydroxyacetate and N-hydroxy-N-isopropyloxamate to the yeast reductoisomerase. The inhibitors Hoe 704 [A] and IpOHA [B] (0.1 nmol) are incubated with varying amounts of enzyme (0 to 0.4 nmol) for 20 minutes at 25° C. with 25 nmol of NADPH and 0.25 μmol of Mg^2+ in a volume of 10 μl. The enzyme activity measurements are carried out at 25° C. in 1 ml of the following reaction medium: 10 mM MgCl2, 250 μM NADPH, 0.48 mM AHB, and in 50 mM sodium Hepes buffer, pH 7.5.
The kinetic parameters for the yeast reductoisomerase were determined by following the evolution of the enzyme reaction in the spectrophotometer under saturating conditions with respect to magnesium, to NADPH and to AHB or AL substrate. All the enzyme activity measurements were carried out in a quartz cuvette with an optical path of 1 cm, containing sodium Hepes buffer (50 mM, pH 7.5), 10 mM MgCl2, 250 μM NADPH, in a final volume of 1 ml, at 25° C. The enzyme reaction was initiated by adding 0.48 mM of AHB or of AL. The evolution of this reaction was followed by virtue of the decrease in absorption of NADPH at 340 nm.
The study of the stoichiometry of binding of the inhibitors N-hydroxy-N-isopropyl-oxamate and dimethylphosphinoyl-2-hydroxyacetate was carried out by incubating varying amounts of enzyme (from 0.1 to 0.4 nmol) with a constant amount of inhibitor for 20 minutes, with 25 nmol of NADPH and 0.25 μmol of MgCl2, in a final volume of 10 μl. The reactions are initiated by adding 0.48 mM AHB in 50 mM sodium Hepes buffer, pH 7.5, containing 10 mM MgCl2.
In the presence of 0.1 nmol of dimethylphosphinoyl-2-hydroxyacetate, an enzyme activity is detected only with amounts of enzyme greater than […]. Similarly, in the presence of 0.1 nmol of N-hydroxy-N-isopropyloxamate, an enzyme activity is detected only for amounts of enzyme greater than 0.1 nmol (FIG. 6). In addition, for these two inhibitors, when the enzyme is in excess relative to the inhibitor in the reaction medium, the enzyme activities increase in parallel with those of the control without inhibitor. […] In fact, in the case of irreversible inhibition, in the presence of a low amount of enzyme, all the enzyme complexes with the inhibitor. The enzyme activity is then zero, since there is no longer any free enzyme in the reaction medium. When the amount of enzyme present in the reaction medium is greater than the amount of inhibitor, the free enzyme in excess in the medium then behaves like the control without inhibitor (straight line parallel to the control).

[4] = tested on: Mycosphaerella graminicola; format: cell-based
Botrytis cinerea = format: cell-based
[5] = tested on: Magnaporthe grisea strain P1.2; format: cell-based; settings: for mean percentage of growth of the M. grisea fungus: 5th day, control = 100%
plant reductoisomerase = plant reductoisomerase (Spinacia oleracea, UniProt Q01292); settings: cited from earlier work
[6] = Magnaporthe grisea, liquid minimum medium (Table 5; text gives concentrations in μM)

T1 sequence (P06168 48-395): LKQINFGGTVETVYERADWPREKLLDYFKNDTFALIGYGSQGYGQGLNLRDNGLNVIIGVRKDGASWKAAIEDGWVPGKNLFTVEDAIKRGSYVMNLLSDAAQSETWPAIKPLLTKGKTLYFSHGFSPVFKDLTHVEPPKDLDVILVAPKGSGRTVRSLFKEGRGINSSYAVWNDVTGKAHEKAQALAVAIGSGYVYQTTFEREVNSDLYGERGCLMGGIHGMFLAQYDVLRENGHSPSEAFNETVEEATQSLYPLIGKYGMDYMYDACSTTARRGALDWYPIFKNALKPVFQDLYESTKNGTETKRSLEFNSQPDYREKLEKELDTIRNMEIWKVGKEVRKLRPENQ
Chain of plant reductoisomerase (Q01292 73-595): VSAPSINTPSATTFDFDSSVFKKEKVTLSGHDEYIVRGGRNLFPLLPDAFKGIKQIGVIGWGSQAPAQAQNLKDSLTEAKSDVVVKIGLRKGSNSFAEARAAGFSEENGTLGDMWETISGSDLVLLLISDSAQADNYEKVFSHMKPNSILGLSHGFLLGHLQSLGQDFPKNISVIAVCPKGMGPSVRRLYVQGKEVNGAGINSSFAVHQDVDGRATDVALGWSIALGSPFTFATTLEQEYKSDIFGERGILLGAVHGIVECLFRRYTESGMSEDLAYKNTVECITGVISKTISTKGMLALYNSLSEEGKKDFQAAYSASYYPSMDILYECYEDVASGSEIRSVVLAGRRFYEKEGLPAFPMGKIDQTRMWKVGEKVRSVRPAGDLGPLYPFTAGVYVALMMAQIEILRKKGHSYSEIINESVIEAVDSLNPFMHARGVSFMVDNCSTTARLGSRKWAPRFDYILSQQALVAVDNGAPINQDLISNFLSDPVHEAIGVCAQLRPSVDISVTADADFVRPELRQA

Structure (SMILES): CC(C)N(O)C(=O)C(=O)O [N-hydroxy-N-isopropyloxamate]
- ID50: concentration which inhibits fungal growth by 50% (Pythium ultimum): 10
- ID80: concentration which inhibits fungal growth by 80% (Pythium ultimum): 30
- Level of sensitivity to IpOHA (Pythium ultimum): Moderately sensitive
- concentration from which growth is inhibited (Pythium ultimum): ≥ 10 µM
- mechanism of inhibition with respect to the AHB substrate (yeast reductoisomerase [1]): competitive
- k0, inhibitor/enzyme association constant (yeast reductoisomerase [1]): 12 433 M^−1.s^−1
- ID50: concentration which inhibits fungal growth by 50% (Ustilago nuda): 3
- ID80: concentration which inhibits fungal growth by 80% (Ustilago nuda): 30
- IpOHA concentrations for which inhibition is lifted by isoleucine, leucine and valine (Ustilago nuda): less than 30 μM
- Level of sensitivity to IpOHA (Ustilago nuda): Moderately sensitive
- concentration from which growth is inhibited (Ustilago nuda): ≥ 10 µM
- spore germination (M. grisea spores; 10 mM, in water or in minimum medium, at 24 and 72 hours): does not inhibit
- spore germination (M. grisea spores; 1 and 3 μM, minimum medium, days 0 and 2): not blocked
- toxicity when minimum medium is supplemented with isoleucine, leucine and valine [2]: lifted
- stoichiometry of binding of the inhibitor to the yeast reductoisomerase (yeast reductoisomerase [3]): 1 mol of inhibitor per mole of enzyme
- amount of enzyme above which an enzyme activity is detected (yeast reductoisomerase [3]; 0.1 nmol inhibitor, 20 min preincubation with NADPH and Mg2+): greater than 0.1 nmol
- type of inhibition (reversibility) (yeast reductoisomerase [3]): irreversible inhibitors
- ID50: concentration which inhibits fungal growth by 50% [4]: 1
- ID80: concentration which inhibits fungal growth by 80% [4]: 3
- Level of sensitivity to IpOHA [4]: Sensitive
- concentration from which growth is inhibited [4]: ≥ 0.3 µM
- Level of sensitivity to IpOHA (Botrytis cinerea): Resistant
- effect on growth at the highest concentration used (Botrytis cinerea): not affected
- mean percentage of growth of the M. grisea fungus ([5]; 0.03 μM inhibitor, MM + leucine, valine, isoleucine 0.3 mM (MM + ILV)): 77.5%
- mean percentage of growth of the M. grisea fungus ([5]; 0.03 μM inhibitor, minimum medium (MM)): 92%
- mean percentage of growth of the M. grisea fungus ([5]; 0.1 μM inhibitor, MM + ILV 0.3 mM): 83.5%
- mean percentage of growth of the M. grisea fungus ([5]; 0.1 μM inhibitor, minimum medium (MM)): 89%
- mean percentage of growth of the M. grisea fungus ([5]; 0.3 μM inhibitor, MM + ILV 0.3 mM): 81%
- mean percentage of growth of the M. grisea fungus ([5]; 0.3 μM inhibitor, minimum medium (MM)): 72%
- mean percentage of growth of the M. grisea fungus ([5]; 1 μM inhibitor, MM + ILV 0.3 mM): 72.5%
- mean percentage of growth of the M. grisea fungus ([5]; 1 μM inhibitor, minimum medium (MM)): 56%
- mean percentage of growth of the M. grisea fungus ([5]; 3 μM inhibitor, MM + ILV 0.3 mM): 71.5%
- mean percentage of growth of the M. grisea fungus ([5]; 3 μM inhibitor, minimum medium (MM)): 13%
- toxicity on growth when minimum medium is supplemented with valine, leucine and isoleucine ([5]; ILV at 0.3 mM, whatever the inhibitor concentration): lifted
- Level of sensitivity to IpOHA ([5]; Magnaporthe grisea): Sensitive
- ID50: concentration which inhibits fungal growth by 50% [5, 6]: 1
- ID80: concentration which inhibits fungal growth by 80% [5, 6]: 3
- inhibition of fungal growth ([5]; inhibitor 0.3 to 1 μM, MM medium, from the 3rd day): approximately 50%
- ID80 (concentration of inhibitor such that the inhibition in fungal growth is 80%) ([5]; minimum medium, 5th day of growth): 1000 nM
- concentration from which inhibition of growth is observed ([5]; minimum medium, from the 3rd day of growth): ≥ 0.3 µM
- k0, inhibitor/enzyme association constant (plant reductoisomerase): 1900 M⁻¹ s⁻¹

Structure (SMILES): CP(C)(=O)C(O)C(=O)O (centres unmarked) [dimethylphosphinoyl-2-hydroxyacetate]
- mechanism of inhibition with respect to the AHB substrate (yeast reductoisomerase [1]): competitive
- k0, inhibitor/enzyme association constant (yeast reductoisomerase [1]): 7721 M⁻¹ s⁻¹
- stoichiometry of binding of the inhibitor to the yeast reductoisomerase (yeast reductoisomerase [3]): 1 mol of inhibitor per mole of enzyme
- type of inhibition (reversibility) (yeast reductoisomerase [3]): irreversible inhibitors
- decrease in growth compared to control without inhibitor ([5]; inhibitor at 2 mM, MM medium, 6th and 7th day of growth): 50%
- k0, inhibitor/enzyme association constant (plant reductoisomerase): 22 000 M^−1.s^−1
